Experimental findings from patent US20110251379A1, “COMPOUNDS USEFUL FOR TREATING NEURODEGENERATIVE DISORDERS” (Satori Pharmaceuticals, Inc., priority 2010, published 2011) are described below.

For the first experiment, the system named is amyloid-beta (1-42) peptide. The experiment is described as follows: ELISA assay of amyloid-beta (1-42) in conditioned media of 2B7 cells. It is filed as cell-based. Particulars: 5 h, Aβ-42, 2B7 cells, 5 hours; read-out: IC50 range. Here is the method: Compounds of the present invention, and extracts comprising said compounds, may be assayed as inhibitors of amyloid-beta (1-42) peptide in vitro or in vivo. Such assay methods are described in detail in U.S. Pat. No. 6,649,196, the entirety of which is hereby incorporated herein by reference.
In certain embodiments, provided compounds of the present invention, and extracts comprising said compounds, were assayed as inhibitors of amyloid-beta (1-42) peptide in vitro using an ELISA assay.
Capture Plate Prep: • 6E10 was diluted to 5.0 ug/mL in 100 mM NaHCO3 pH 8.2 (10 ug aliquot per 2 mL buffer); • 100 uL capture antibody solution was added to wells of 96 well plate; • Incubated overnight at 4° C. sealed; • Aspirated off capture antibody; and • Blocked with 250 uL of Blocking Buffer for 2-4 hours at rt sealed.
Conditioned Media: • Cultured 2B7 cells in 96 well plate with 250 uL of media per well until confluent; • Prepared serial dilution of compounds in DMSO at 100× the final desired concentration; • Washed wells with 2B7 cells lx with 250 uL of media; • Diluted DMSO stocks 1:100 into media and mix; and • Added 250 μL of media containing compounds (1% DMSO) to wells with 2B7 cells for 5 hours at 37° C.
Elisa Sample Prep: • Diluted conditioned media 1:2 into blocking buffer; • NOTE: If assaying for A-Beta 1-40 or total A-Beta, then diluted above sample 1:10 with a 50/50 mixture of non-conditioned media containing 1% DMSO and blocking buffer.
Standard Curve Sample Prep: • Diluted appropriate A-Beta peptide stock (stored in 1% NH4OH) to 200 μg/mL in blocking buffer; • Prepared a 1:2 serial dilution from the 200 μg/mL sample (150 μL into 150 μL blocking buffer); and • Added equal volume of standard curve samples to non-conditioned media with 1% DMSO.
Overnight Sample Incubation: • Aspirated blocking buffer from blocked plate; • Added 100 μL of samples to wells of plate (samples will be 50% media with 1% DMSO and 50% blocking buffer; and • Incubated overnight at 4° C. sealed.
Addition of Detection Antibody: • Aspirated off samples, wash 2× with 250 μL blocking buffer; and • Added 100 μL detection antibody labeled with HRP at 0.25 ug/mL in blocking buffer for 4 hours at room temperature sealed.
Final Wash and Readout: • Aspirated wells, wash 5× with 250 μL of PBS-T (2 minutes each wash at 30 RPM); • Added 100 μL TMB for 20 minutes; • Added 100 μL of 1M H3PO4; and • Read at 450 nm.
Coating Buffer (100 mM NaHCO3 pH 8.2)
PBS-T (PBS with 0.05% Tween-20)
Blocking Buffer (1% BSA in PBS-T)
Background: An ELISA detects its analyte on a solid surface through an enzyme-linked reagent.
Consider `CC(=O)O[C@@H]([C@H]1C[C@@H](C)C2C(O1)[C@H](O)[C@@]1(C)[C@@H]3CC[C@H]4C(C)(C)[C@@H](OC5CN(C6CCCC6)CCO5)CC[C@@]45C[C@@]35CC[C@]21C)C(C)(C)O` (stereo partly drawn), for which the IC50 (usually the midpoint of a concentration-inhibition curve) is not above 1 µM. As for `CC(=O)O[C@@H]([C@H]1C[C@@H](C)C2C(O1)[C@H](O)[C@@]1(C)[C@@H]3CC[C@H]4C(C)(C)[C@@H](OC5CN(CCN6CCOCC6)CCO5)CC[C@@]45C[C@@]35CC[C@]21C)C(C)(C)O` (stereo partly drawn), the IC50 is not above 1 µM. Turning to `CC(=O)O[C@@H]([C@H]1C[C@@H](C)C2C(O1)[C@H](O)[C@@]1(C)[C@@H]3CC[C@H]4C(C)(C)[C@@H](OC(=O)CN(C)C)CC[C@@]45C[C@@]35CC[C@]21C)C(C)(C)O` (stereo partly drawn), the IC50 was not above 1 µM. `CC(=O)O[C@@H]([C@H]1C[C@@H](C)C2C(O1)[C@H](O)[C@@]1(C)[C@@H]3CC[C@H]4C(C)(C)[C@@H](OC(=O)c5ccccn5)CC[C@@]45C[C@@]35CC[C@]21C)C(C)(C)O` (stereo partly drawn): the IC50 is not above 1 µM.

On to `CC(=O)O[C@@H]([C@H]1C[C@@H](C)[C@H]2[C@H](O1)[C@H](O)[C@@]1(C)[C@@H]3CC[C@H]4C(C)(C)[C@@H](O[C@H]5CN(CCN(C)C)CCO5)CC[C@@]45C[C@@]35CC[C@]21C)C(C)(C)O`, for which the IC50 was not above 1 µM.

As for `CC(=O)O[C@@H]([C@H]1C[C@@H](C)[C@H]2[C@H](O1)[C@H](O)[C@@]1(C)[C@@H]3CC[C@H]4C(C)(C)[C@@H](O[C@H]5CN(CCN6CCCC6)CCO5)CC[C@@]45C[C@@]35CC[C@]21C)C(C)(C)O`, the IC50 is not above 1 µM.

Regarding `CC(=O)O[C@@H]([C@H]1C[C@@H](C)[C@H]2[C@H](O1)[C@H](O)[C@@]1(C)[C@@H]3CC[C@H]4C(C)(C)[C@@H](O[C@H]5CN(C6CCC6)CCO5)CC[C@@]45C[C@@]35CC[C@]21C)C(C)(C)O`, the IC50 is not above 1 µM. As for `CC(=O)O[C@@H]([C@H]1C[C@@H](C)[C@H]2[C@H](O1)[C@H](O)[C@@]1(C)[C@@H]3CC[C@H]4C(C)(C)[C@@H](O[C@H]5CN(CCO)CCO5)CC[C@@]45C[C@@]35CC[C@]21C)C(C)(C)O`, the IC50 is not above 1 µM. Regarding `CC(=O)O[C@@H]([C@H]1C[C@@H](C)[C@H]2[C@H](O1)[C@H](O)[C@@]1(C)[C@@H]3CC[C@H]4C(C)(C)[C@@H](O[C@H]5CN(CC(F)(F)F)CCO5)CC[C@@]45C[C@@]35CC[C@]21C)C(C)(C)O`, the IC50 was not above 1 µM. In the case of `CC(=O)O[C@@H]([C@H]1C[C@@H](C)[C@H]2[C@H](O1)/C(=N/O)[C@H]1C3CCC4C(C)(C)[C@@H](OC5OC[C@@H](O)[C@H](O)[C@H]5O)CC[C@@]45C[C@@]35CC[C@]21C)C(C)(C)O` (stereo partly drawn), the IC50 is not above 1 µM. On to `CC(=O)O[C@@H]([C@H]1C[C@@H](C)[C@H]2[C@H](O1)C1(SCCS1)[C@@]1(C)C3CCC4C(C)(C)[C@@H](O)CC[C@]4(C)C3=CC[C@]21C)C(C)(C)O` (stereo partly drawn), for which the IC50 lay within 1 to 10 µM. As to `CC(=O)O[C@@H]([C@H]1C[C@@H](C)[C@H]2[C@H](O1)[C@H](O)[C@@]1(C)[C@@H]3CC[C@H]4C(C)(C)[C@@H](O[C@@H](CN(C)C)OCCN(C)C)CC[C@@]45C[C@@]35CC[C@]21C)C(C)(C)O`, the IC50 lay within 1 to 10 µM. Still for that read-out and setting: the result for `CC(=O)O[C@@H]([C@H]1C[C@@H](C)[C@H]2[C@H](O1)[C@H](O)[C@@]1(C)[C@@H]3CC[C@H]4C(C)(C)[C@@H](O[C@H]5CN(C6COC6)CCO5)CC[C@@]45C[C@@]35CC[C@]21C)C(C)(C)O` reads not above 1 µM; that for `CCN1CCO[C@@H](O[C@H]2CC[C@]34C[C@]35CC[C@]3(C)[C@@H]6[C@H](O[C@@H]([C@H](OC(C)=O)C(C)(C)O)C[C@H]6C)[C@H](O)[C@@]3(C)[C@@H]5CC[C@H]4C2(C)C)C1`, not above 1 µM. Regarding `CCCN1CCO[C@@H](O[C@H]2CC[C@]34C[C@]35CC[C@]3(C)[C@@H]6[C@H](O[C@@H]([C@H](OC(C)=O)C(C)(C)O)C[C@H]6C)[C@H](O)[C@@]3(C)[C@@H]5CC[C@H]4C2(C)C)C1`, the IC50 lay in the range of 1 to 10 µM.

In the case of `CC(=O)O[C@@H]([C@H]1C[C@@H](C)[C@H]2[C@H](O1)[C@H](O)[C@@]1(C)[C@@H]3CC[C@H]4C(C)(C)C(OC(=O)c5ccncc5)CC[C@@]45C[C@@]35CC[C@]21C)C(C)(C)O` (stereo partly drawn), the IC50 is not above 1 µM. `CC(=O)O[C@@H]([C@H]1C[C@@H](C)[C@H]2[C@H](O1)[C@H](O)[C@@]1(C)[C@@H]3CC[C@H]4C(C)(C)C(OC(=O)[C@@H]5CCCN5)CC[C@@]45C[C@@]35CC[C@]21C)C(C)(C)O` (stereo partly drawn): the IC50 is not above 1 µM.

For the compound `CC(=O)O[C@@H]([C@H]1C[C@@H](C)[C@H]2[C@H](O1)[C@H](O)[C@@]1(C)[C@@H]3CC[C@H]4C(C)(C)C(OC(=O)C5CCCO5)CC[C@@]45C[C@@]35CC[C@]21C)C(C)(C)O` (stereo partly drawn), the IC50 is not above 1 µM. For `CC(C)C(O)[C@H]1C[C@@H](C)[C@H]2[C@H](O1)[C@H](O)[C@@]1(C)[C@@H]3CC[C@H]4C(C)(C)[C@@H](O)CC[C@@]45C[C@@]35CC[C@]21C` (stereo partly drawn), the IC50 was more than 10 µM. Regarding `C[C@@H]1C[C@H]([C@H](O)C(C)(C)O)O[C@H]2[C@H]1[C@@]1(C)CC[C@@]34C[C@@]35CC[C@H](O[C@H]3CN(CC(N)=O)CCO3)C(C)(C)[C@@H]5CC[C@H]4[C@]1(C)[C@H]2O`, the IC50 was more than 10 µM. In the case of `CC(=O)O[C@@H]([C@H]1C[C@@H](C)[C@H]2[C@H](O1)[C@H](O)[C@@]1(C)[C@@H]3CC[C@H]4C(C)(C)[C@@H](O[C@H]5CN(CCOCCOCCNC(=O)CCCC[C@@H]6SC[C@@H]7NC(=O)N[C@@H]76)CCO5)CC[C@@]45C[C@@]35CC[C@]21C)C(C)(C)O`, the IC50 is not above 1 µM. In the case of `CC(=O)O[C@@H]([C@H]1C[C@@H](C)[C@H]2[C@H](O1)[C@H](O)[C@@]1(C)[C@@H]3CC[C@H]4C(C)(C)[C@@H](OS(C)(=O)=O)CC[C@@]45C[C@@]35CC[C@]21C)C(C)(C)O`, the IC50 is more than 10 µM. As to `CC(=O)O[C@@H]([C@H]1C[C@@H](C)[C@H]2[C@H](O1)[C@H](O)[C@@]1(C)[C@@H]3CC[C@H]4C(C)(C)[C@@H](OC(=O)Cc5ccccn5)CC[C@@]45C[C@@]35CC[C@]21C)C(C)(C)O`, the IC50 was not above 1 µM. Still for that read-out and setting: the result for `C[C@@H]1C[C@H](CO)O[C@H]2C1[C@@]1(C)CC[C@@]34C[C@@]35CC[C@H](O[C@@H]3OC[C@@H](O)[C@H](O)[C@H]3O)C(C)(C)[C@@H]5CC[C@H]4[C@]1(C)[C@H]2O` (stereo partly drawn) reads more than 10 µM; that for `CC(=O)O[C@@H]([C@H]1C[C@@H](C)[C@H]2[C@H](O1)[C@H](O)[C@@]1(C)[C@@H]3CC[C@H]4C(C)(C)[C@@H](O[C@H]5CN(S(C)(=O)=O)CCO5)CC[C@@]45C[C@@]35CC[C@]21C)C(C)(C)O`, not above 1 µM.

The same experiment, now with this note: Aβ-42, 2.5 umol/L; read-out: % Inhibition (range).
Turning to `C[C@@H]1CC[C@@]2(NC1)OC1C[C@H]3C4CC=C5C[C@@H](O)CC[C@]5(C)C4CC[C@]3(C)C1[C@@H]2C` (stereo partly drawn), the inhibition (commonly the percentage by which the read-out fell short of the control) at 2.5 µM was less than 25%.

Still in this experiment, the particulars now being: Aβ-42, 10 umol/L; read-out: % Inhibition (range).
Regarding `C[C@@H]1C(O)CO[C@@]2(O)C[C@H]3[C@@H]4CC=C5C[C@@H](O[Si](C)(C)C(C)(C)C)CC[C@]5(C)[C@H]4CC[C@]3(C)[C@@H]12` (stereo partly drawn), the inhibition at 10 µM is less than 25%. In the case of `C[C@@H]1C(I)COC2C[C@H]3[C@@H]4CC=C5C[C@@H](O)CC[C@]5(C)[C@H]4CC[C@]3(C)C21` (stereo partly drawn), the inhibition at 10 µM is less than 25%. Same read-out and setting: the result for `CC(=O)O[C@H]1CC[C@]23C[C@]24CC[C@]2(C)C5C(C[C@@]2(C)C4CCC3C1(C)C)OC(O)(C(F)(F)F)C[C@H]5C` (stereo partly drawn) reads less than 25%. Regarding `CC(=O)O[C@H]1CC[C@]23C[C@]24CC[C@]2(C)C5C(C[C@@]2(C)[C@@H]4CC[C@H]3C1(C)C)OC(C(F)(F)F)=C[C@H]5C` (stereo partly drawn), the inhibition at 10 µM was less than 25%. In the case of `CC1O[C@@H]([C@H]2C[C@@H](C)C3C(O2)[C@H](O)[C@@]2(C)[C@@H]4CC[C@H]5C(C)(C)[C@@H](O)CC[C@@]56C[C@@]46CC[C@]32C)C(C)(C)O1` (stereo partly drawn), the inhibition at 10 µM is less than 25%.

Staying with this experiment, now noted: Aβ-42, 20 umol/L; read-out: % Inhibition (range).
On to `CC(C)C(O)[C@H]1C[C@@H](C)[C@H]2[C@H](O1)[C@H](O)[C@@]1(C)[C@@H]3CC[C@H]4C(C)(C)[C@@H](O)CC[C@@]45C[C@@]35CC[C@]21C` (stereo partly drawn), for which the inhibition at 20 µM was less than 25%. With `C[C@@H]1C[C@H]([C@H](O)C(C)(C)O)O[C@H]2[C@H]1[C@@]1(C)CC[C@@]34C[C@@]35CC[C@H](O[C@H]3CN(CC(N)=O)CCO3)C(C)(C)[C@@H]5CC[C@H]4[C@]1(C)[C@H]2O`, the inhibition at 20 µM was less than 25%.
